In patent US9073916B2, “Prodrug forms of kinase inhibitors and their use in therapy” (AUCKLAND UNISERVICES LIMITED, priority 2009, dated 2015):
Where a name gives a salt, the structure may show the parent alone. Read-outs that look alike come from different tables or passages of the source.

Experiments:
SKBR3 cells = experiment: Cellular growth inhibition (sulforhodamine B); assay type: cell-based, Human; details: Table 3; for IC50: Homo sapiens, SK-BR-3
SW620 cells = experiment: Cellular growth inhibition (sulforhodamine B); assay type: cell-based, Human; details: Table 3; for IC50: Homo sapiens, SW-620
A431 cells = experiment: Cellular growth inhibition (sulforhodamine B); details: for A431 HCR (Hypoxic Cytotoxicity Ratio): Table 3
erbB1 = erbB1 (Homo sapiens, UniProt P00533); experiment: Inhibition of erbB1 autophosphorylation in EGF-stimulated intact A431 cells (Western blot)
Sequence of erbB1 (P00533 25-1210): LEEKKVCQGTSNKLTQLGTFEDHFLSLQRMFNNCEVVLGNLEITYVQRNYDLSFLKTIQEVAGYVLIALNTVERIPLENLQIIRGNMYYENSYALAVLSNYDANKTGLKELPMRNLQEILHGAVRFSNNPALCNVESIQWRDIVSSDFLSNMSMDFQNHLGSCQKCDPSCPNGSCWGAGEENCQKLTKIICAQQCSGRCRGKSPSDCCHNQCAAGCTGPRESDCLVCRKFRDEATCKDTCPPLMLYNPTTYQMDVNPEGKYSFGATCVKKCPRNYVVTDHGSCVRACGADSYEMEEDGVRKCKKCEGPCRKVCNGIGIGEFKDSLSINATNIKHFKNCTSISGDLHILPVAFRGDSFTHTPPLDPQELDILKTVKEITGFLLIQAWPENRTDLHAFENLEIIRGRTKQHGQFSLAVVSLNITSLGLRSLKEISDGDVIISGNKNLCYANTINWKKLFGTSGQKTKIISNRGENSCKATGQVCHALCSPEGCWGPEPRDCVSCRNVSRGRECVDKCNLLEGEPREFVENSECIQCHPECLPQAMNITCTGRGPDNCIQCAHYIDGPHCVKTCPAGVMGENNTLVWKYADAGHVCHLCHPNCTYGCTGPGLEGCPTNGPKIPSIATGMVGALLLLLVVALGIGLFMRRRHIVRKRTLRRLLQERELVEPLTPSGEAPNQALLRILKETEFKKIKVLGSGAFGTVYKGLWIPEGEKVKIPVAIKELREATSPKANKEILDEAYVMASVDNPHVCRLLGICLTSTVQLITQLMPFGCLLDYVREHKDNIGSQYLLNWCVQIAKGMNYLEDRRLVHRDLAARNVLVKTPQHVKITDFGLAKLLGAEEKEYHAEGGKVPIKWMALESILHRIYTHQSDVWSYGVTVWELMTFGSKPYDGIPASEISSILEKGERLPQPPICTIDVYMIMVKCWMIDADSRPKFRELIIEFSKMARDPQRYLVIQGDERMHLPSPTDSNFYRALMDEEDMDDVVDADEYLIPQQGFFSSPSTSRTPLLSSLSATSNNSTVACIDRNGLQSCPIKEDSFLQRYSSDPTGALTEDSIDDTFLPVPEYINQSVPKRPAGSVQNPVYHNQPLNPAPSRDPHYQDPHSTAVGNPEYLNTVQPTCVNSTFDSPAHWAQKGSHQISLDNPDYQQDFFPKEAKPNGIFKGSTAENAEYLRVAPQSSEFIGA

H1975 cells = experiment: Cellular growth inhibition (sulforhodamine B); assay type: cell-based, Human
HT29 cells = experiment: Cellular growth inhibition (sulforhodamine B); assay type: cell-based, Human; details: Table 7
[1] = Steady state radiolytic reduction by the CO2.− radical with HPLC-MS; assay type: physicochemical; details: for Detection of MNA (methyl nitroaromatic) / release of effector following 1-electron reduction: HPLC-MS; for % Loss of prodrug: HPLC-MS at 0.95 reducing equivalents; for release of effector following 1-electron reduction: steady state radiolysis
[2] = Pulse radiolysis (E(1) and fragmentation rate); assay type: physicochemical; details: for kfrag. (fragmentation rate constant upon 1-electron reduction): benzyl-type radical formation; for E (1)/V (one-electron reduction potential): determined against methylviologen
Experimental: (§1) Pulse radiolysis was used to monitor the 1-electron reduction and stability of the compounds in real time. A linear accelerator delivering short pulses of high energy electrons (2-3 Gy in 200 ns of 4 MeV) equipped with a fast spectophotometric detection system was used. (Anderson et al, J. Phys. Chem. A, 101, 9704-9709, 1997). […] The rate of fragmentation was determined by analysing kinetic transients at wavelengths corresponding to the formation of the benzyl-type radical of the trigger moiety. (Bays et al, J. Am. Chem. Soc., 105, 320-324, 1983; Anderson et al, J. Phys. Chem. A, 101, 9704-9709, 1997).
The pulse radiolysis method, for example, measures the equilibrium constant between the radical anions of the prodrugs, formed upon their 1-electron reduction, and reference standards such as viologen and quinone compounds, from which data the E(1) values of the compounds can be calculated. (Meisel and Czapski. J. Phys. Chem., 1975, 79, 1503-1509.) The E(1) values of prodrugs 17-22, 140-145 were measured by the pulse radiolysis method and determined to range between −0.493V and −0.388V (Table 4).
The rate constants for fragmentation, kfrag, of the 1-electron reduced prodrugs can be measured using pulse radiolysis to observe the time-resolved formation of the absorption spectrum of the benzyl-type radical produced upon fragmentation of the radical anion. (Anderson et al, J. Phys. Chem. A, 1997, 101, 9704-9709.) The kfrag values of prodrugs 19, 20, 140, 141 and 143-145 were measured by pulse radiolysis and are presented in Table 4.
as §1, with “one-electron” for “1-electron”, “prodrug 42” for “the compounds”, “used.” for “used. (Anderson et al, J. Phys. Chem. A, 101, 9704-9709, 1997).”, “1997.)” for “1997).”

SKOV3 cells = experiment: Cellular growth inhibition (sulforhodamine B); assay type: cell-based, Human; details: Table 9; for IC50: Homo sapiens, SK-OV-3
[3] = 24 hour exposure entirely oxic, read-out: Cellular Growth Inhibition IC50 SKBR3 Oxic
[4] = first 4 hours anoxic, read-out: Cellular Growth Inhibition IC50 SKBR3 Anoxic
[5] = 24 hour exposure entirely oxic, read-out: Cellular Growth Inhibition IC50 SW620 Oxic
[6] = first 4 hours anoxic, read-out: Cellular Growth Inhibition IC50 SW620 Anoxic
[7] = Homo sapiens, A-431, 24 h, read-out: Cellular Growth Inhibition IC50 A431 Oxic
[8] = Homo sapiens, A-431, read-out: Cellular Growth Inhibition IC50 A431 Anoxic
[9] = Table 7, 24 hour exposure oxic, read-out: Cellular Growth Inhibition IC50 H1975 Oxic
[10] = Table 7, initial 4 hours anoxic, read-out: Cellular Growth Inhibition IC50 H1975 Anoxic
[11] = 24 hour exposure oxic, read-out: Cellular Growth Inhibition IC50 HT29 Oxic
[12] = initial 4 hours anoxic, read-out: Cellular Growth Inhibition IC50 HT29 Anoxic
[13] = read-out: Cellular Growth Inhibition IC50 A431 Anoxic, Table 7, initial 4 hours anoxic
[14] = read-out: Cellular Growth Inhibition IC50 A431 Oxic, Table 7, 24 hour exposure oxic

| melting point | IC50 (H1975 cells; [9]) | IC50 (H1975 cells; [10]) | IC50 (HT29 cells; [11]) | IC50 (HT29 cells; [12]) | IC50 (A431 cells; [13]) | IC50 (A431 cells; [14]) | Detection of MNA (methyl nitroaromatic) [1] | % Loss of prodrug [1] | E (1)/V (one-electron reduction potential) [2] | Compound | H1975 HCR (H1975 cells; Table 7) | A431 HCR (A431 cells; Table 7) | kfrag. (fragmentation rate constant upon 1-electron reduction) [2] | other results |
| --- | --- | --- | --- | --- | --- | --- | --- | --- | --- | --- | --- | --- | --- | --- |
| 125 to 129 °C | – | – | – | – | – | – | – | – | – | Cn1cnc([N+](=O)[O-])c1C[N+]1(C/C=C/C(=O)Nc2ccc3ncnc(Nc4cccc(Br)c4)c3c2)CCOCC1.O=C[O-] | – | – | – | – |
| 178 to 181 °C | – | – | – | – | – | – | – | – | – | C[N+](C)(C/C=C/C(=O)Nc1ccc2ncnc(Nc3cccc(Br)c3)c2c1)Cc1ccc([N+](=O)[O-])cc1 (as salt: bromide) [Compound 17, (2E)-4-{[4-(3-bromoanilino)-6-quinazolinyl]amino}-N,N-dimethyl-N-(4-nitrobenzyl)-4-oxo-2-buten-1-ammonium bromide] | – | – | – | – |
| 166 to 169 °C | – | – | – | – | – | – | – | – | – | C[N+](C)(C/C=C/C(=O)Nc1ccc2ncnc(Nc3cccc(Br)c3)c2c1)Cc1ccccc1[N+](=O)[O-] (as salt: bromide) [Compound 18, (2E)-4-{[4-(3-bromoanilino)-6-quinazolinyl]amino}-N,N-dimethyl-N-(2-nitrobenzyl)-4-oxo-2-buten-1-ammonium bromide] | – | – | – | – |
| 177 °C (dec.) | – | – | – | – | – | – | – | – | – | Cn1cnc([N+](=O)[O-])c1C[N+](C)(C)CCCC(=O)Nc1ccc2ncnc(Nc3cccc(Br)c3)c2c1 (as salt: bromide) [Compound 27, 4-{([4-(3-bromoanilino)-6-quinazolinyl]amino}-N,N-dimethyl-N-[(1-methyl-4-nitro-1H-imidazol-5-yl)methyl]-4-oxo-1-butanaminium bromide] | – | – | – | – |
| – | – | – | – | – | – | – | – | – | – | O=C(/C=C/CN1CCCCC1)Nc1ccc2ncnc(Nc3cccc(Br)c3)c2c1 [Compound 12, (E)-N-(4-(3-bromophenylamino)quinazolin-6-yl)-4-(piperidin-1-yl)but-2-enamide, reference compound] | – | – | – | IC50 (SKBR3 cells; [3]): 0.044 µM; IC50 (SKBR3 cells; [4]): 0.028 µM; SKBR3 HCR (SKBR3 cells): 1.6 fold; IC50 (SW620 cells; [5]): 3.81 µM; IC50 (SW620 cells; [6]): 4.01 µM; SW620 HCR (SW620 cells): 1.0 fold; IC50 (A431 cells; [7]): 0.01 µM; IC50 (A431 cells; [8]): 0.023 µM; A431 HCR (Hypoxic Cytotoxicity Ratio) (A431 cells): 0.4 fold; IC50 (erbB1): 0.045 µM |
| – | – | – | – | – | – | – | – | – | – | O=C(/C=C/CN1CCOCC1)Nc1ccc2ncnc(Nc3cccc(Br)c3)c2c1 [Compound 13, (E)-N-(4-(3-bromophenylamino)quinazolin-6-yl)-4-morpholinobut-2-enamide, reference compound] | – | – | – | IC50 (SKBR3 cells; [3]): 1.04 µM; IC50 (SKBR3 cells; [4]): 0.664 µM; SKBR3 HCR (SKBR3 cells): 1.6 fold; IC50 (SW620 cells; [5]): 27.4 µM; IC50 (SW620 cells; [6]): 29 µM; SW620 HCR (SW620 cells): 1.5 fold; IC50 (A431 cells; [7]): 0.43 µM; IC50 (A431 cells; [8]): 0.784 µM; A431 HCR (Hypoxic Cytotoxicity Ratio) (A431 cells): 0.5 fold; IC50 (erbB1): 0.016 µM |
| – | 64.5 µM | 2.3 µM | > 100 µM | > 30 µM | 0.059 µM | 3.6 µM | – | – | – | Cn1cnc([N+](=O)[O-])c1C[N+](C)(C)C/C=C/C(=O)Nc1cc2c(Nc3ccc(F)c(Cl)c3)ncnc2cc1O[C@H]1CCOC1.O=C([O-])C(F)(F)F [Compound 82, (2E)-4-({4-(3-chloro-4-fluoroanilino)-7-[(3S)-tetrahydro-3-furanyloxy]-6-quinazolinyl}amino)-N,N-dimethyl-N-[(1-methyl-4-nitro-1H-imidazol-5-yl)methyl]-4-oxo-2-buten-1-ammonium trifluoroacetate] | 28 fold | 62 fold | – | – |
| – | 4.7 µM | 0.43 µM | 4.6 µM | 0.31 µM | 0.51 µM | 7.9 µM | Yes | 92% | −0.429 V | CC[N+](CC)(CCOc1ccc(Nc2ncc3cc(-c4c(Cl)cccc4Cl)c(=O)n(C)c3n2)cc1)Cc1c([N+](=O)[O-])ncn1C.[Br-] [Compound 140, 2-(4-{[6-(2,6-dichlorophenyl)-8-methyl-7-oxo-7,8-dihydropyrido[2,3-d]pyrimidin-2-yl]amino}phenoxy)-N,N-diethyl-N-[(1-methyl-4-nitro-1H-imidazol-5-yl)methyl]ethanammonium bromide] | 13 fold | 15 fold | 310 ± 20 s⁻¹ | HT29 HCR (HT29 cells): 15 fold; release of effector following 1-electron reduction [1]: released their respective effector compounds |
| – | 6.1 µM | 0.37 µM | 5.6 µM | 0.32 µM | 0.44 µM | 12.3 µM | Yes | 83% | −0.456 V | CC[N+](CC)(CCOc1ccc(Nc2ncc3cc(-c4c(Cl)cccc4Cl)c(=O)n(C)c3n2)cc1)Cc1c([N+](=O)[O-])nc(C)n1C.[Br-] [Compound 141, 2-(4-{[6-(2,6-dichlorophenyl)-8-methyl-7-oxo-7,8-dihydropyrido[2,3-d]pyrimidin-2-yl]amino}phenoxy)-N-[(1,2-dimethyl-4-nitro-1H-imidazol-5-yl)methyl]N,N-diethylethanammonium bromide] | 18 fold | 30 fold | 1100 ± 100 s⁻¹ | HT29 HCR (HT29 cells): 18 fold |
| – | 203 µM | 57.2 µM | 298 µM | 10.7 µM | 24.1 µM | 146 µM | Yes | 68% | −0.449 V | CC[N+](CC)(CCNC(=O)c1c(C)[nH]c(/C=C2\C(=O)Nc3ccc(F)cc32)c1C)Cc1c([N+](=O)[O-])ncn1C.O=C([O-])C(F)(F)F [Compound 144, N,N-diethyl-2-[({5-[(Z)-(5-fluoro-2-oxo-1,2-dihydro-3H-indol-3-ylidene)methyl]-2,4-dimethyl-1H-pyrrol-3-yl}carbonyl)amino]-N-[(1-methyl-4-nitro-1H-imidazol-5-yl)methyl]ethanammonium trifluoroacetate] | 3 fold | 7 fold | 470 ± 20 s⁻¹ | HT29 HCR (HT29 cells): 31 fold; release of effector following 1-electron reduction [1]: released their respective effector compounds |
| – | – | – | – | – | – | – | Yes | 87% | −0.456 V | CC[N+](CC)(CCNC(=O)c1c(C)[nH]c(/C=C2\C(=O)Nc3ccc(F)cc32)c1C)Cc1c([N+](=O)[O-])nc(C)n1C.[Br-] [Compound 145, N-[(1,2-dimethyl-4-nitro-1H-imidazol-5-yl)methyl]-N,N-diethyl-2-[({5-[(Z)-(5-fluoro-2-oxo-1,2-dihydro-3H-indol-3-ylidene)methyl]2,4-dimethyl-1H-pyrrol-3-yl}carbonyl)amino]ethanammonium bromide] | – | – | 1050 ± 40 s⁻¹ | – |
| – | – | – | – | – | – | – | – | – | – | CN(C)C/C=C/C(=O)Nc1cc2c(Nc3ccc(F)c(C(F)(F)F)c3)ncnc2cn1 [Compound 170] | – | – | – | IC50 (H1975 cells; Homo sapiens, NCI-H1975, Table 9, 24 hour exposure oxic, read-out: Cellular Growth Inhibition IC50 H1975 Oxic): 1.7 µM; IC50 (H1975 cells; Homo sapiens, NCI-H1975, Table 9, first 4 hours anoxic, read-out: Cellular Growth Inhibition IC50 H1975 Anoxic): 1.38 µM; H1975 HCR (H1975 cells; Table 9): 1.2 fold; IC50 (SKOV3 cells; 24 hour exposure oxic, read-out: Cellular Growth Inhibition IC50 SKOV3 Oxic): 0.99 µM; IC50 (SKOV3 cells; first 4 hours anoxic, read-out: Cellular Growth Inhibition IC50 SKOV3 Anoxic): 1.8 µM; SKOV3 HCR (SKOV3 cells): 0.7 fold; IC50 (A431 cells; Homo sapiens, A-431, 4 h, read-out: Cellular Growth Inhibition IC50 A431 Anoxic): 0.25 µM; IC50 (A431 cells; [7]): 0.24 µM; A431 HCR (A431 cells; Table 9): 1.5 fold; IC50 (erbB1): 0.008 µM |
